Experimental data: patent publication US11484607B2, “PSMA-targeted NIR dyes and their uses” (On Target Laboratories, LLC, priority 2015, dated 2022)

How the values were obtained:
[1] = system: 22Rv1 tumor xenografts
Method: (§2) Whole body Imaging & Tissue biodistribution: Seven-week-old male nu/nu mice were inoculated subcutaneously with 5.0×106 22Rv1, LNCaP, PC3 or A549 cells/mouse in 50% high concentrated matrigel with RPMI1640 medium on the shoulder. Growth of the tumors was measured in perpendicular directions every 2 days using a caliper (body weights were monitored on the same schedule), and the volumes of the tumors were calculated as 0.5×L×W2 (L=longest axis and W=axis perpendicular to L in millimeters). Once tumors reached approximately 300-400 mm3 in volume, animals (3-5 mice/group) were intravenously injected with appropriate dose of OTL78 in saline.
(§3) For whole body imaging and biodistribution studies, animals were euthanized after 2 h of administration of OTL78 by CO2 asphyxiation. For time dependent studies, animals were imaged under anesthesia using isoflurane. Imaging experiments were then performed using IVIS or AMI image systems. Following whole body imaging, animals were dissected and selected tissues were analyzed for fluorescence activity using IVIS or AMI image system and ROI of the tissues were calculated using Living Image 4.0 software or AMIView Image Analysis Software.

[2] = system: PC3 cells; test: Binding and internalization of OTL78 by epifluorescence microscopy; type: cell-based, human; conditions: 100 nM, 1 h
Method: (§1) Confocal Microscopy: 22Rv1, LNCaP, or PC3 cells (50,000 cells/well in 1 mL) were seeded into poly-D-lysine microwell Petri dishes and allowed cells to form monolayers over 12 h. Spent medium was replaced with fresh medium containing OTL78 (100 nM) and cells were incubated for 1 h at 37° C. or 4° C. After rinsing with fresh medium (2×1.0 mL) and saline (lx 1.0 mL), fluorescence images were acquired using an epi-microscopy.

[3] = system: 22Rv1 cells; test: as above; type: cell-based, human; conditions: 100 nM, 1 h
Method: as §1

[4] = system: LNCaP cells; test: as above; type: cell-based, human; conditions: 100 nM, 1 h
Method: as §1

[5] = system: LNCaP tumor xenografts; test: OTL78 whole body imaging and tissue biodistribution, subcutaneous tumor; type: in vivo, mice; conditions: 10 nmol, 2 h
Method: as §2, §3

[6] = target: T1, PSMA on 22Rv1 cells (Homo sapiens, UniProt Q04609); test: OTL78 relative affinity (IC50) by competition with DUPA-FITC; type: binding; conditions: 100 nM DUPA-FITC, 30 min at 4° C., flow cytometer; read-out: IC50 competing with DUPA-FITC
T1 construct: host or cells: 22Rv1 human prostate cancer cells
T1 sequence (Q04609 whole entry): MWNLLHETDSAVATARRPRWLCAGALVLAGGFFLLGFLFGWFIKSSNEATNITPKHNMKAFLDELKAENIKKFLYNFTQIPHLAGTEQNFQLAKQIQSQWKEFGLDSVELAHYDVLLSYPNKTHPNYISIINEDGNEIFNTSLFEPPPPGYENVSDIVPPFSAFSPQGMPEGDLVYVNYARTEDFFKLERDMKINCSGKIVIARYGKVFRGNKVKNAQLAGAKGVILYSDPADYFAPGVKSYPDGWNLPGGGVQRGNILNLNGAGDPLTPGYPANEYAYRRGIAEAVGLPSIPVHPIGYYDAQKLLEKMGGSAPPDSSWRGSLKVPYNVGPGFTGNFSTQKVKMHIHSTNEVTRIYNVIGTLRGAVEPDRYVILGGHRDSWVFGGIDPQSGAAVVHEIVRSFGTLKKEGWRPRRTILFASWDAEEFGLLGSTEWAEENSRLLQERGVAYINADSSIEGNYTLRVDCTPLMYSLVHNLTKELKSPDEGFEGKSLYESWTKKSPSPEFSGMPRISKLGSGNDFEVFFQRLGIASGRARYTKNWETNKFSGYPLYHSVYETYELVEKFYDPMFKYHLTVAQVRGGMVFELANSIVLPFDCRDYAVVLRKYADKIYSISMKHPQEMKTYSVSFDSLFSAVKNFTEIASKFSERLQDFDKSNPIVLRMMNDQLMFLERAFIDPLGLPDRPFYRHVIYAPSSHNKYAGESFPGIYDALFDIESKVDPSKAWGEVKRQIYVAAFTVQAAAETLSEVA
Method: In vitro binding: For OTL78 relative affinity (IC50), 22Rv1 or PC3 cells were plated into a T75 flask and allowed to form a monolayer over 48 h. After trypsin digestion, released cells were transferred into centrifuge tubes (1×10^6 cells/tube) and centrifuged. Spent medium in each tube was replaced with 100 nM DUPA-FITC in the presence of increasing concentration (0.001 nM-10 μM) of OTL78 in fresh medium (0.5 mL). After incubating for 30 min at 4° C., cells were rinsed with culture medium (2×1.0 mL) and saline (1×1.0 mL) to remove any unbound DUPA-FITC. Cells were then re-suspended in saline (0.5 mL) and cell bound fluorescence was quantified using a flow cytometer. The relative affinities were calculated using a plot of percent cell bound fluorescence versus the log concentration of OTL78 using GraphPad Prism 6.

[7] = system: PC3 tumor xenografts; test: OTL78 whole body imaging and tissue biodistribution, subcutaneous tumor; type: in vivo, mice; conditions: 10 nmol, 2 h
Method: as §2, §3

[8] = Concentration dependent UV spectrometric study of higher order aggregates; type: physicochemical; conditions: 75 μM in saline
Method: Possible OTL78-related hypersensitivity in human was next examined using basophil activation assay. Drug related hypersensitivity is mainly due to immune response caused by cross-linking of immunoglobulin E (IgE) expressed on mast cells and basophils (FIG. 47D) resulting in activation and subsequent degranulation to release vasoactive amines, prostaglandins, and cytokines (29). Since cross-linking of IgE can be due to aggregates, concentration dependent UV spectrometric studies were conducted to determine higher order aggregates of OTL78.

[9] = Safety study of OTL78 (body weight, histopathology, clinical pathology)
Method: Safety Study: Seven-week-old healthy male Balb/c (5 mice/group) were administered with 6 μmol of freshly prepared OTL78 or saline dissolved in 100 μL of saline via tail vein injection on day zero. Body weights and clinical observations were monitored prior to dosing and daily thereafter from day zero to 14.
For immunohistopathology (IHC) studies, the animals were euthanized by CO2 asphyxiation on the day 14 and selected tissues (brain, heart, lung, liver, spleen, kidney, stomach, small intestine, large intestine, muscle, and skin) were collected into vials containing 4% formalin. Formalin fixed tissues were sectioned into 10 μm thick sections and mounted onto Superfrost Plus™ slides (Fisher Scientific, Pittsburgh Pa.). After staining the slides with H&E, IHC analysis of the tissues was conducted to determine to the toxicity of OTL78.
For clinical pathology studies, the animals were euthanized by CO2 asphyxiation on the day 14 and blood was collected to heparin by cardiac punch and blood work analysis was conducted at Purdue clinical pathology lab.

[10] = system: 22Rv1 orthotopic tumors; test: OTL78 imaging of orthotopic prostate tumors, AMI image system; type: in vivo, SCID mice; conditions: 10 nmol, 2 h
Method: For orthotopic tumors, 2×10^5 22Rv1 cells/mouse in 10% high concentrated (HC) matrigel with RPMI1640 medium were surgically implanted in the prostate of seven-week-old male SCID mice. Briefly, seven-week-old male SCID mice were given 1-5% isoflurane for anesthesia and subcutaneous injection of 5 mg/kg meloxicam preoperatively for analgesia. The mice were placed dorsal side up and washed above the prostate with a chlorhexidine scrub to ensure a sterile area for incision. After an insertion was made using scalpel through the skin, the peritoneal lining was lifted to make a small incision using a scissor and widened using forceps. Dorsal lobes were exteriorized and gently stabilized with a wet (PBS) cotton swab. 22Rv1 cells (in 10 μL of 10% HC-matrigel) were injected the prostate using a 28-gage needle. After placing the prostate back into the peritoneum, the abdominal wall was sutured, the body wall was closed using 3-0 or 4-0 vicryl and the skin was closed using staples. Animals were monitored until use them for the studies. After one month, the animals were administered with OTL78 (10 nmol in 100 μL saline per mouse), euthanized after 2 h by CO2 asphyxiation, and imaged using AMI image system.

[11] = system: basophils; test: Basophil activation test (Flow CAST) in human blood samples; type: cell-based
Method: Tolerability Studies: The blood samples were collected into hirudin tubes and used within an hour of collection. For each donor, 4 different tubes were prepared for allergen, positive controls, and negative control. Samples were analyzed using Flow CAST® high sensitivity Basophil Activation Test (BAT). Briefly, stimulation buffer (100 μL, background) or anti-FcεER antibody (100 μL) or fMLP (100 μL) or OTL78 (75 μM in 100 μL of saline) was added to tubes containing stimulation buffer (200 μL). 100 μL of blood was added to each tube and mixed gently. After adding staining reagent (40 μL) containing anti-CD63-CD203c-PE-DY647 and anti-CCR3-PE, each tube was mixed gently and incubated for 15 minutes at 37° C. Lysing reagent (2 mL) was added to each tube, mixed gently, incubated for 5-10 minutes at room temperature, and centrifuged for 5 minutes at 500×g. The supernatant was discarded and the cells were re-suspended in wash buffer (900 μL) and analyzed using flow cytometry. CD63-CD203c-PE-DY647+/CCR3-PE+ cell population considered as the activated basophils.

[12] = target: T1, PSMA on 22Rv1 cells; test: OTL78 binding affinity (Kd), cell bound fluorescence by fluorometer; conditions: 30 min at 4° C.
Method: For OTL78 binding affinity, 22Rv1 or PC3 cells were seeded into a T75 flask and allowed to form a monolayer over 48 h. After trypsin digestion, cells were transferred into centrifuge tubes (1×10^6 cells/tube) and centrifuged. The medium was replaced with fresh medium containing increasing concentration of OTL78 and incubated for 30 min at 4° C. After rinsing with fresh medium (2×1.0 mL) and saline (1×1.0 mL), cells were lysed with 1% SDS with in saline (1.0 mL) and cell bound fluorescence was analyzed using a fluorometer (Cary Eclipse, Agilent Technologies). The binding affinity (Kd) was calculated using a plot of percent cell bound fluorescence versus concentration using GraphPad Prism 6.

[13] = system: A549 tumor xenografts; test: OTL78 whole body imaging and tissue biodistribution, subcutaneous tumor; type: in vivo, mice; conditions: 10 nmol, 2 h
Method: as §2, §3

[14] = 0.3-120 nmol/mouse tested, 2 hour time point, IVIS

For `CC1(C)C(/C=C/C2=C(Oc3ccc(C[C@H](NC(=O)[C@H](Cc4ccccc4)NC(=O)CCOCCOCCNC(=O)CC[C@H](NC(=O)N[C@@H](CCC(=O)O)C(=O)O)C(=O)O)C(=O)O)cc3)C(=C/C=C3/N(CCCCS(=O)(=O)O)c4ccc(S(=O)(=O)O)cc4C3(C)C)/CCC2)=[N+](CCCCS(=O)(=O)[O-])c2ccc(S(=O)(=O)O)cc21` [OTL78], the “accumulation in 22Rv1 tumors” value ([1]; 10 nmol, 2 h) was “accumulated predominantly”, the “dose of best TBR” value [1, 14] was 3-10 nmol/mouse and the “dose range providing excellent TBR” value [1, 14] was 1-30 nmol per mouse. The “time for skin uptake to clear” value ([1]; mouse, in vivo) was 4 to 5 h, the “labelling of PC3 cells” value [2] was “not PC3 cells” and the “labelling of 22Rv1 cells” value [3] was “able to efficiently label”. The “labelling of LNCaP cells” value [4] was “able to efficiently label”, the “accumulation in LNCaP tumors” value [5] was “accumulated predominantly” and the IC50 [6] was 7 nM. The “fluorescence intensity of PC3 tumors compared to 22Rv1 tumors” value [7] was about 6 folds less, the “higher order aggregates (UV spectra), in words” value [8] was “no noticeable higher order aggregates” and the “body weight change over the course of the study” value ([9]; 6 μmol/mouse (600× of normal dose), day zero to 14) was under 5 % increase. For the same molecule, the “clinical pathology analysis on blood samples” value ([9]; 6 μmol/mouse, day 14) was “No noticeable toxicities”, the “pathological changes in H&E staining of tissues” value ([9]; 6 μmol/mouse, day 14) was “no obvious pathological changers” and the “accumulation in orthotopic prostate tumors” value [10] was “mainly accumulated in prostate tumors with no fluorescence observed in other tissues except kidneys”. For the same molecule, the “detection of local regional metastasis in seminal vesicles” value ([10]; in the presence of primary tumor) was “able to detect”, the “stimulated index” value ([11]; FIG. 47E, ≥2 considered positive response) was 1 and the “Percent of basophile activation, Avg” value ([11]; average of 3 healthy subjects) was 2.8%. The “Percent of basophile activation, Subject 1” value ([11]; healthy subjects, OTL78 75 μM) was 2.64%, the “Percent of basophile activation, Subject 2” value ([11]; healthy subjects, OTL78 75 μM) was 2.67% and the “Percent of basophile activation, Subject 3” value ([11]; healthy subjects, OTL78 75 μM) was 3.14%. For the same molecule, the “SI = Avg/background” value ([11]; stimulation index, ≥2 considered positive response) was 1.1, the Kd [12] was 4.7 nM and the “fluorescence intensity of A549 tumors compared to 22Rv1 tumors” value [13] was about 6 folds less.
